# Laboratory results from patent US6015560A, “Antibody recognizing endothelial cell ligand for leukocyte CR3” (priority 1995, dated 2000).
# Experiments:
# blood-brain barrier = assay: Rat meningitis model (LOS): blood-brain barrier permeability; assay type: in vivo; conditions: for inhibition of blood-brain barrier permeability (in words): rat, in vivo
# Description: (§1) Briefly, anesthetized female Wistar rats were placed under a micromanipulator and inoculated intracisternally with a 25 gauge needle. After removal of 50 μl of CSF (without visible blood contamination), rats were inoculated intracisternally with 50 μl (20 ng) of LOS using a 1 ml syringe with a 25 gauge needle. Ten to fifteen minutes after inoculation with LOS, the rats were treated by intravenous administration of the test substance: a solution of an FHA peptide in PBS, a solution of a control peptide in PBS, or an equal volume of PBS alone.
# (§2) Three hours after LOS inoculation, 5 μCi of ^125 I-radiolabelled albumin in 50 μl normal saline was administered intravenously. One hour later, CSF was collected via intracisternal puncture and blood samples were collected via intracardiac puncture. CSF leukocytosis was determined by manually counting white blood cells using a hemacytometer, and blood-brain barrier permeability was determined as the percent of radioactivity in whole blood that was present in the CSF. Blood samples were obtained immediately prior to inoculation, immediately prior to treatment, and at 4 hours post-inoculation for determination of peripheral white blood cell concentrations.
# [1] = system: human umbilical vein endothelial cells; assay: Adherence of neutrophils to cultured (TNF-stimulated) endothelial cells; assay type: cell-based; conditions: for inhibition of neutrophil adherence to endothelial cells / neutrophil adherence blocking activity (in words): 0.5 mM; for neutrophil adherence blocking activity (in words): compared with FHA Ca
# Description: Human umbilical vein endothelial cells (HUVEC, first passage, Clonetics, San Diego, Calif.) were subcultured at confluence into Terasaki tissue culture wells. After 24 hours, confluent monolayers were used for adherence assays. Monolayers were stimulated with 10 ng/ml TNF alpha (Boehringer Mannheim, Indianapolis, Ind.) at 37° C. for four hours. 30 μl of human neutrophils (10^6 /ml) were labeled with fluorescein by the method of Lo et al. (1991), J. Exp. Med. 173 1493-1500, and preincubated for 15 minutes at 37° C. with 20 μl of peptides (0.5 mM in HAP) or HAP (phosphate buffered saline containing 0.5 mg/ml human serum albumin, 3 mM glucose, and 0.3 U/ml aprotinin) as a control buffer. For some experiments, endothelial cells were pretreated from 10 minutes with Factor X or antibodies against Factor X receptor (EPR-1; Altieri et al. (1990), J. Immunol. 145, 246-253) 12H1 and 9D4 (obtained from Dr. D. Altieri, Scripps Research Institute, Lajolla, Calif.) and then washed. Neutrophils were allowed to adhere to the monolayer for 15 mins. at 37° C. and unbound cells were removed by submersion of the plate in PBS buffer. The number of adherent neutrophils was counted in a 40× microscope field and expressed as a percentage of adherence in control wells with neutrophils treated with HAP buffer alone. The mAb IB4 against CD18 (50 μg/ml; Merck Inc., Rahway, N.J.) served as a positive control.
# (§3) The procedures for determining the neutrophil adherence to cultured endothelial cells and the transendothelial migration of neutrophils were identical with those of Example 9. Control values were the same as those shown in Example 9.
# neutrophils = assay: Transendothelial migration of neutrophils; assay type: cell-based, human; conditions: for % Inhibition of TEM: peptides 0.01 mM
# Description: Transendothelial migration of neutrophils was studied based on a method described by Muller et al. (1992), J. Exp. Med. 176: 819-828. Briefly, human neutrophils suspended in ice-cold Hanks balanced salt solution (HBSS) containing Ca^++ and Mg^++ (Sigma) were fluoresceinated by adding 3.3 μl/ml 5-(and 6-)carboxyfluorescein diacetate, succinimidyl ester (CFSE, Molecular Probes Inc., Oreg.). After incubation for 30 mins. on ice, neutrophils were washed twice in cold HBSS with Ca^++ and Mg^++ and resuspended in cold Medium 199 (M199, Sigma) to a final concentration of 10^6 /ml. Human umbilical vein endothelial cells were subcultured at confluence into 96-well tissue culture plates (Becton Dickinson Labware, Lincoln Park, N.J.) that were coated with hydrated collagen gel (Vitrogen; Collagen Corporation, Palo Alto, Calif.) and fibronectin. Endothelial cells were stimulated with 10 ng/ml TNF-alpha for 4 hours and washed three times with warm M199. Neutrophils (10^6 /ml) were preincubated with 0.01 mM of peptides or with 1 μM of native FHA in M199 for 5 mins. on ice before they were added in 100 μl aliquots to the endothelial cells. For positive control, neutrophils were pre-incubated with 25 μg/ml anti-CD18 mAb IB4. For negative control, neutrophils were treated with 25 μg/ml mAb W6/32 against HLA class I antigen (Dako, Carpinteria, Calif.). The cells were incubated for 1 hour at 37° C., 5% CO2. To terminate transmigration, the supernatant fluid was aspirated and the wells were filled with warm 1 mM EGTA (Sigma) in HBSS without Ca and Mg. The plates were covered with plate sealers (Dynatech, Alexandria, Va.) and centrifuged in an inverted position at 250 g for 3 mins. at room temperature. To remove residual non-transmigrated neutrophils from the endothelial cells, monolayers were washed twice with 200 μl of warm Hanks solution without Ca and Mg. Fluorescence was quantitated using a fluorescence counter (Millipore Cytofluor™ 2300). The percentage of transmigrated neutrophils was determined by comparing the amount of fluorescence of test wells with that measured in collagen- and fibronectin-coated wells without endothelial cells. […] Percent inhibition of transendothelial migration of neutrophils was calculated by comparing the number of transmigrated cells in wells containing neutrophils treated with peptide to neutrophils treated with M199 alone and arbitrarily set at 100% transendothelial migration (TEM).
# as §3
# leukocytes in CSF [2] = assay: Rabbit meningitis model: leukocyte migration into CSF; assay type: in vivo; conditions: for leukocyte migration into CSF (in words): 0.1 μM peptide i.v.; for leukocyte density in CSF: 7 hours, 1 ml of 1 uM peptide i.v.
# Description: (§4) The rabbit model was performed according to an established protocol. Specific pathogen free, New Zealand white rabbits (2 kg; Hare Marland, Nutley, N.J.) were anesthetized with valium (2.5 mg/kg, subcutaneously, Hoffman-LaRoche, Nutley, N.J.), ketamine (35 mg/kg, intramuscularly, Aveco, Fort Dodge, Iowa) and xylazine (5 mg/kg, intramuscularly, Miles Laboratories, Shawnee, Kans.) and a helmet of dental acrylic was affixed to the calvarium. Twenty four hours later, the rabbits were anesthetized with ethyl carbamate (1.75 g/kg; Aldrich Chemical Co., Milwaukee, Wis.) and pentobarbital (15 mg/kg; Abbott Laboratories, Abbott Park, Ill.) and placed in a stereotaxic frame. A spinal needle was introduced into the cisterna magna and 300 μl of CSF was withdrawn. The animals were challenged intracisternally with 10^8 heat killed, unencapsulated pneumococcus strain R6 introduced in 200 μl of saline (time 0). One hour later, animals were treated with peptides dissolved in 1 ml of saline by intravenous injection into the right marginal ear vein. The concentration of FHA was 0.1 μM and that of the FHA Ia, Factor X II, and scrambled FHA II peptides was 10 μM. For the acetyl-FHA II, acetyl/amide-FHA II, dimer of FHA II and trimer of FHA II peptides, the concentration was 10^-3 μM. The concentration of FHA II is given in the results section. Samples of CSF were withdrawn at hourly intervals after pneumococcal inoculation and leukocyte density was measured using a cell counter (Coulter Electronics Inc., Hialeah, Fla.). CSF samples were centrifuged at 10,000×g for 5 minutes and the supernatant was stored at -70° C. until assayed for protein concentration using the bicinchoninic acid method (BCA Kit, Pierce Chemical Co., Rockford, Ill.) and for lactate concentration (Lactate Detection Kit, Sigma, St. Louis, Mo.). Statistically significant differences between treatments were determined by a one way analysis of variance test.
# The anti-inflammatory effects of the administered peptides were assessed in the rabbit model for meningitis by the procedures described in Example 10. The animals received 1 ml of 1 uM peptide intravenously. In a slight departure from the protocol described in Example 10, samples of blood were drawn from the left marginal ear vein 30 minutes after the administration of the peptides to determine peripheral leukocyte concentrations.
# blood brain barrier = assay: Rabbit meningitis model: CSF protein and lactate (blood brain barrier permeability); assay type: in vivo
# Description: as §4
# Loss of barrier function of the cerebral capillary endothelium during inflammation is reflected by an influx of serum proteins into the CSF. […] To examine if the peptides were able to ameliorate these measures of cerebral injury, CSF protein and lactate concentrations were measured hourly in peptide-treated and control animals (Table 10).
# Leukocyte migration into the CSF in bacterial meningitis is associated with loss of barrier function of the cerebral capillary endothelium, resulting in influx of serum proteins into the CSF. To determine whether FHA peptides were able to prevent this leukocyte-dependent injury, protein concentrations in the CSF were measured throughout the course of inflammation in peptide-treated and control animals.
# cerebral infarct = assay: Rat transient middle cerebral artery occlusion: infarct volume; assay type: in vivo; conditions: 2 hours MCAo; 50 nmol i.v. plus 150 nmol i.p. boluses; 48 hours
# [3] = Peripheral white blood cells in rats; conditions: rat, in vivo
# Description: as §2
# leukocytes in CSF [4] = assay: Rat meningitis model (LOS): CSF leukocytosis; assay type: in vivo; conditions: 4 hours
# Description: The experiments were performed according to established protocols (Wispelway et al., 1988, J. Clin. Invest., 82: 1339-1346). Purified Haemophilus influenzae type b strain DL42 lipooligosaccharide (LOS) was prepared for inoculation by sonication for 30 minutes, dilution to the desired concentration (20 ng/50 μl) in normal saline or PBS, and sonication for an additional 15 to 30 minutes just prior to use.
# as §1, §2
# albumin = conditions: cited from earlier work
# [5] = Stability in 50% rabbit plasma; assay type: in vitro ADME; conditions: 37° C.
# Description: To determine the stability of the FHA II peptide, the unmodified or the acetylated-amidated peptide were incubated in 50% rabbit plasma at 37° C.
# B. pertussis = conditions: in vivo; cited from earlier work
# CD11b/CD18 = target: T1, CD11b/CD18 (Homo sapiens, UniProt P05107+P11215); assay: Downmodulation of CD11b/CD18 on macrophages (binding of C3bi-coated erythrocytes); assay type: cell-based; conditions: 0.5 mM
# T1 construct: C3bi-erythrocyte rosetting after spreading on peptide-coated wells
# T1 sequence (P05107 23-769, other chains not shown): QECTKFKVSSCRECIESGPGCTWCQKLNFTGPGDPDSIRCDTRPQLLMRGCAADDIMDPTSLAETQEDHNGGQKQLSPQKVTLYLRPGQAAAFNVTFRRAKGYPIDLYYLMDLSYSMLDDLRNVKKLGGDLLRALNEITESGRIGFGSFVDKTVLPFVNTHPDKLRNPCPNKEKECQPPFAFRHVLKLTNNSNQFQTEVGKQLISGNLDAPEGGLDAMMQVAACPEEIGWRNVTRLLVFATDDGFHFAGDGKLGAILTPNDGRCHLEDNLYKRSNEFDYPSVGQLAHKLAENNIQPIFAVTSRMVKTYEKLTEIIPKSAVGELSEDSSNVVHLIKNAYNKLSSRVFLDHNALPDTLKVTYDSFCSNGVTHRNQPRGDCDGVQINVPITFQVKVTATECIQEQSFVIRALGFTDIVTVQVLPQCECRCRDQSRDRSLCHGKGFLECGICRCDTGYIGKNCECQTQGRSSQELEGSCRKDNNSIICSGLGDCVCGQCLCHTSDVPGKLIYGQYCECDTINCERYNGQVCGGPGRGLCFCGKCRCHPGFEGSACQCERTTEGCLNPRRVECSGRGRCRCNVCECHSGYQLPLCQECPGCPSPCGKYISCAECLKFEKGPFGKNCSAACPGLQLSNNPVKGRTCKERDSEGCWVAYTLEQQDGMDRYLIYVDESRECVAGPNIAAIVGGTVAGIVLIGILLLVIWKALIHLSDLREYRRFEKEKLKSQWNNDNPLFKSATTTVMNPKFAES
# Description: Human monocytes were purified from buffy coats on Percoll gradients and cultured in 12.5% human serum in Teflon beakers. Macrophages were harvested from Teflon beakers after 6-8 days and suspended in HAP buffer. Terasaki wells were coated with 5 μl of peptides (0.5 mM) or anti-CD18 mAb IB4 (50 μg/ml). Control wells were coated with HAP. After 2 hours of incubation at RT, 5 μl of macrophages (5×10^5 /ml HAP) were added and allowed to spread for 45 mins. at 37° C. […] IgM-coated erythrocytes in buffer served as negative control. After washing, the number of erythrocytes bound per 100 leukocytes (adherence index) was quantitated visually under an inverted microscope.
# ciliated cells = conditions: cited from earlier work
compound,measurement,setting,value
RGDPHQGVLAQGDIIMDAKG [FHA Ca],BBB permeability,"blood-brain barrier; 100 nmol i.v., radioactivity in CSF of that in whole blood",3.0%
same,inhibition of blood-brain barrier permeability (in words),blood-brain barrier,dose dependent
same,concentration at which loss of activity (≤20% inhibition) occurred,[1],1 µM
same,inhibition of neutrophil adherence to endothelial cells,[1],47±7%
same,maximal inhibition of neutrophil attachment,[1]; concentration dependence,~ 50%
same,concentration required for inhibition of transendothelial migration similar to native FHA (82%),neutrophils,10 µM
same,leukocyte migration into CSF (in words),leukocytes in CSF [2],significantly reduced leukocyte migration into the CSF
same,leukocyte density in CSF,leukocytes in CSF [2],2137±1498 cells/μl CSF
same,Total protein in CSF,blood brain barrier; 6 hours,1.18 ± 0.39 mg/mL
same,Total protein in CSF,blood brain barrier; 7 hours,1.69 ± 0.41 mg/mL
same,infarct volume,cerebral infarct,approximately 25 % of the hemisphere
same,neutropenia,[3],No neutropenia
"Ac-VEEDTKG-NH2 [scrambled ac/am FHA II, VEEDTKG, reference compound]",Leukocytosis (CSF leukocyte concentration),leukocytes in CSF [4]; 600 nmol i.v.,"14,287 ± 10,199 cells/ml"
CC1(C)S[C@@H]2[C@H](NC(=O)Cc3ccccc3)C(=O)N2[C@H]1C(=O)O [penicillin],bound to albumin,albumin,~80%
Ac-ETKEVDG-NH2 [Acetyl/Amide-FHA II],inhibition of blood-brain barrier permeability (in words),blood-brain barrier,not observed
same,interference with neutrophil adherence (in words),[1]; peptides 0.5 mM,significantly enhanced the ability of peptide FHA II to block neutrophil adherence to endothelia
same,Leukocytosis (CSF leukocyte concentration),leukocytes in CSF [4]; 600 nmol i.v.,"approximately 10,000 cells/ml"
same,Leukocytosis (CSF leukocyte concentration),"leukocytes in CSF [4]; 600 nmol i.v., listed as ac/am FHA II","10,500 ± 8523 cells/ml"
same,leukocytes in CSF,"leukocytes in CSF [2]; 6 hours, 10 nmoles i.v.",3011±684 cells/μl
same,protein influx into CSF and lactate generation (in words),"blood brain barrier; 10 μM peptides, 0.1 μM FHA",significantly reduced protein influx into the CSF and generation of lactate
same,neutropenia,[3],No neutropenia
same,concentration over time (in words),[5],remained unchanged over 48 hours
OC[C@H]1O[C@@H](O[C@H]2[C@H](O)[C@@H](O)C(O)O[C@@H]2CO)[C@H](O)[C@@H](O)[C@H]1O (stereo partly drawn) [Lactose],colonization of rabbit lung,B. pertussis,decrease colonization of rabbit lung
AADPHQGVLAQGDIIMDAKG [FHA Cc],neutrophil adherence blocking activity (in words),[1],activity was detectable above background but was not statistically different from buffer alone
same,effect on CD11b/CD18 (in words),CD11b/CD18,no significant effect
same,Total protein in CSF,blood brain barrier; 6 hours,1.36 ± 0.16 mg/mL
same,Total protein in CSF,blood brain barrier; 7 hours,1.90 ± 0.22 mg/mL
GTLLLRNDALTENGTVTISA [FHA Cd],inhibition of neutrophil adherence to endothelial cells,[1],< 15%
same,% Inhibition of TEM,neutrophils,6 ± 6%
same,leukocyte recruitment into CSF (in words),leukocytes in CSF [2]; 1 μM peptide i.v.,no effect
same,effect on CD11b/CD18 (in words),CD11b/CD18,no significant effect
same,Total protein in CSF,blood brain barrier; 6 hours,1.71 ± 0.19 mg/mL
same,Total protein in CSF,blood brain barrier; 7 hours,2.03 ± 0.57 mg/mL
RADPHQGVLAQGDIIMDAKG [FHA Cb],neutrophil adherence blocking activity (in words),[1],activity was decreased by half
same,% Inhibition of TEM,neutrophils,8 ± 9%
same,leukocyte migration into CSF (in words),leukocytes in CSF [2],ineffective
same,leukocyte density in CSF,leukocytes in CSF [2],2788±1022 cells/μl CSF
same,effect on CD11b/CD18 (in words),CD11b/CD18,no significant effect
same,Total protein in CSF,blood brain barrier; 6 hours,1.91 ± 0.24 mg/mL
same,Total protein in CSF,blood brain barrier; 7 hours,2.28 ± 0.28 mg/mL
"IDVPQHGGAMRDLGIAQGKD [scrambled FHA Ca, reference compound]",Leukocytosis (CSF leukocyte concentration),leukocytes in CSF [4]; 100 nmol i.v.,"20,700 ± 7,400 cells/ml"
lactosamines,inhibition of adherence of B. pertussis to human ciliated cells,ciliated cells,Inhibition of adherence
